This is an account of results in patent US20250099407A1, “2-AMINO BENZOPHENONE DERIVATIVES FOR TARGETED FERROPTOSIS INDUCTION IN CANCER THERAPY” (INDIAN INSTITUTE OF TECHNOLOGY KANPUR, priority 2023, published 2025).

Molecules are shown by their SMILES.

Holding throughout (assay type): cell-based
Assay [1] deals with PC3. In words: Cell viability, CellTiter-Glo assay, PC3. On the procedure: The viability of screened cancer cells was recorded using a luminescence-based CellTiter-Glo® assay for the ATP quantification. The screening concentration of the molecule ranged from 100/10 μM to 45/4.5 nM with an 8-point-3-fold dilution series in DMEM media (>0.1% DMSO as control). Each experiment was conducted in more than two biological replicates with three technical replicates. The error bar is a representation of standard deviation among the technical replicates.
The viability of screened cancer cells was recorded using a luminescence-based CellTiter-Glo® assay for the ATP quantification. The screening concentration of IITK3002 ranged from 10 μM to 4.5 nM with an 8-point-3-fold dilution series in DMEM media (>0.1% DMSO as control). Each experiment was conducted in more than two biological replicates with three technical replicates. The error bar is a representation of standard deviation among the technical replicates.
a. […] In parallel, we have also synthesized the bromoacetamide (IITK3002) version of the lead molecules which is slightly more reactive with thiol nucleophiles when compared to chlorooacetamide warheads as depicted in FIG. 13. […] In addition, we also evaluated the molecules' antiproliferative potency against a panel of twelve different cancer phenotypes. The set of cancer cell lines included liver, breast, colon, myeloma, bone, blood, skin, brain and prostate lineages (FIG. 2, 3, Table 1).
(In general: Cellular ATP, detected with luciferase, serves as a proxy for viable cell number.)

Assay [2] relates to A549. In words: Cell viability, A549. The note with it: Homo sapiens.
Assay [3] relates to Huh-7 cells. In words: Combination cell viability experiments with thiols, ferroptosis modulators and cell death inhibitors in Huh-7 cells. Conditions: for reduction in potency by N-acetylcysteine (NAC) and GSH: 500 μM NAC or glutathione in combination; for effect of erastin addition on antiproliferative activity: Erastin 0.5 μM, relatively non-toxic concentration; for effect of apoptosis (QVD-OPh) and necrosis (Necrostatin-1) inhibitors on antiproliferative activity: QVD-OPh and Necrostatin-1 10 μM; for cell death mechanism from combination experiments: combination with GSH, NAC, BSO, Fer-1, deferoxamine, RSL3, FIN56, Erastin, QVD-OPh, necrostatin-1, Huh-7 and 4T1. On the procedure: FIG. 14 depicts a combination experiment indicates the involvement of thiol modulation by IITK3001/IITK3002 on the viability of Huh-7 and 4T1 cells, in accordance with an embodiment of the present invention. The viability of screened cancer cells was recorded using a luminescence-based CellTiter-Glo® assay for the ATP quantification. The screening concentration of (a) IITK3001 and (b) IITK3002 ranged from 10 uM to 4.5 nM with an 8-point-3-fold dilution series in DMEM medium (>0.1% DMSO as control). For combination experiments, 500 μM of NAC or glutathione and 25 μM of BSO were used. Each experiment was conducted in more than two biological replicates with three technical replicates. The error bar is a representation of standard deviation among the technical replicates.
(§1) FIG. 16 depicts ferroptosis induction as a cell death mechanism is established for IITK3001 using combination experiments with ferroptosis inducers and inhibitors, in accordance with an embodiment of the present invention. The screening concentration of (a) IITK3001 and (b) IITK3002 ranged from 10 μM to 4.5 nM with an 8-point-3-fold dilution series in DMEM medium (>0.1% DMSO as control). For combination experiments, Ferrostain-1 (10 μM),Deferoxamine (3 μM), RSL3 (10 nM), FIN56 (30 nM), glutamine (0.5 mM), glutamic acid (0.5 mM), Erastin (0.5 μM) were used. Each experiment was conducted in more than two biological replicates with three technical replicates. The error bar is a representation of standard deviation among the technical replicates.
as §1, with “18” for “16”, “IITK3002” for “IITK3001”, “of” for “of (a) IITK3001 and (b)”, “μM), Deferoxamine” for “μM),Deferoxamine”
FIG. 20 depicts combining apoptosis and necroptosis inhibitors ruled out the possibility of respective cell death mechanisms upon treatment with IITK3001 or IITK3002 in Huh-7 and 4T1 cells, in accordance with an embodiment of the present invention. The screening concentration of IITK3001/IITK3002 ranged from 10 μM to 4.5 nM with an 8-point-3-fold dilution series in DMEM medium (>0.1% DMSO as control). For combination experiments, QVD-OPh and Necrsotatin-1 (10 μM) were used. Each experiment was conducted in more than two biological replicates with three technical replicates. The error bar is a representation of standard deviation among the technical replicates.
FIG. 22 depicts ferroptosis induction was established for IITK3003 using combination experiments in Huh-7 cells, in accordance with an embodiment of the present invention. The screening concentration of IITK3002 ranged from 10 uM to 4.5 nM with an 8-point-3-fold dilution series in DMEM medium (>0.1% DMSO as control). For combination experiments, Ferrostain-1 ([…]), Deferoxamine (3 μM), RSL3 (10 nM), FIN56 (30 nM), glutamine (0.5 mM), glutamic acid (0.5 mM), Erastin (0.5 μM) were used. Each experiment was conducted in more than two biological replicates with three technical replicates. The error bar is a representation of standard deviation among the technical replicates.
FIG. 24 depicts ferroptosis induction was established for IITK3004 using combination experiments in Huh-7 cells, in accordance with an embodiment of the present invention. The screening concentration of the molecules (a) IITK3001 and (b) IITK3002 ranged from 10 μM to 4.5 nM with a 8-point-3-fold dilution series. […]

[4] abbreviates: Homo sapiens, PC-3, PC3, cell viability.

Regarding `CN(C(=O)CCl)c1ccccc1C(=O)c1ccccc1` [IITK3001, N-(2-benzoylphenyl)-2-chloro-N-methylacetamide], in assay [1] (setting [4]), the EC50 was 348 nM. Moreover, in assay [1] (PC3, cell viability), the EC50 is 350 nM. The compound also displayed an EC50 in assay [2] of 610 nM. For the same compound, in assay [3], the “reduction in potency by N-acetylcysteine (NAC) and GSH” value is reported as greater than 1000 fold; the “effect of erastin addition on antiproliferative activity” value is “no effect”; the “effect of apoptosis (QVD-OPh) and necrosis (Necrostatin-1) inhibitors on antiproliferative activity” value is given as “no apparent deviation”; the “cell death mechanism from combination experiments” value (“cell death mechanism” below) was “ferroptosis”.

For the compound `CN(C(=O)CBr)c1ccccc1C(=O)c1ccccc1` [IITK3002, N-(2-benzoylphenyl)-2-bromo-N-methylacetamide], in assay [1] (setting [4]), the EC50 is 193 nM. This compound also gave an EC50 in assay [1] (PC3, cell viability) of 190 nM. The EC50 in assay [2] amounted to 30 nM. Besides, in assay [3], the “reduction in potency by N-acetylcysteine (NAC) and GSH” value is on record as greater than 500 fold; the “effect of erastin addition on antiproliferative activity” value is “no effect”; the “effect of apoptosis (QVD-OPh) and necrosis (Necrostatin-1) inhibitors on antiproliferative activity” value is on record as “no apparent deviation”; the “cell death mechanism” value is “ferroptosis”.

Take `C#CCN(C(=O)CCl)c1ccccc1C(=O)c1ccccc1` [IITK3003, N-(2-benzoylphenyl)-2-chloro-N-(prop-2-yn-1-yl)acetamide]: the EC50 came to 1110 nM in assay [1] (setting [4]) and 700 nM in assay [2]. Moreover, the “cell death mechanism” value in assay [3] was “exceptionally selective ferroptosis inducers”.

What is called EC50 is the concentration giving half of the maximal effect. Read a low EC50 as higher potency in that assay.
